In patent publication US20240368135A1 (VERTEX PHARMACEUTICALS INCORPORATED, priority 2021, published 2024):

Target: human NaV 1.8 (Homo sapiens, UniProt Q9Y5Y9)
Experiment: E-VIPR assay detecting and measuring NaV inhibition properties
Assay type: cell-based
Conditions: HEK cells expressing truncated human NaV 1.8; in the presence of human serum (compound numbers followed by *); read-out: IC50 in the E-VIPR Assay, performed in the presence of human serum
Procedure, shortened: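 HEK cells expressing truncated, fully active human NaV1.8, with KIR2.1 BacMam co-transduction, were loaded with CC2-DMPE/DiSBAC6(3) voltage-sensing dyes for 20 min at room temperature. Compounds were tested in 11-point 3-fold dilutions (300 nM top final), optionally with 25% human serum, under electrical stimulation with FRET read-out.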

Chain of human NaV 1.8 (Q9Y5Y9 126-399 limits assumed): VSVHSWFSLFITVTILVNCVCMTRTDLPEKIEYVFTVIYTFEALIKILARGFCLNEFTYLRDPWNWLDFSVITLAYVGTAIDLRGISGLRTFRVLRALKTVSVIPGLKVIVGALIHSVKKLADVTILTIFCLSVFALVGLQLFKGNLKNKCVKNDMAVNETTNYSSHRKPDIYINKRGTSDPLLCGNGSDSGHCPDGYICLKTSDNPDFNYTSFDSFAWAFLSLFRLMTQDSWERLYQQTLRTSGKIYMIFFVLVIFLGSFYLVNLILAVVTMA
Chain of human NaV 1.8 (Q9Y5Y9 660-890 limits assumed): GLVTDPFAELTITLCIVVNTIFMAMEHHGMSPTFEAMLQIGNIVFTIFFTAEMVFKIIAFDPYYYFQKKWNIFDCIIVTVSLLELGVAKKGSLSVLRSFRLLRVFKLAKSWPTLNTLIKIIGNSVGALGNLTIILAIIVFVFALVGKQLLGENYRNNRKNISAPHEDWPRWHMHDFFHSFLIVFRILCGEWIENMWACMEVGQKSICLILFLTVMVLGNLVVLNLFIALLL
Chain of human NaV 1.8 (Q9Y5Y9 1148-1722 limits assumed): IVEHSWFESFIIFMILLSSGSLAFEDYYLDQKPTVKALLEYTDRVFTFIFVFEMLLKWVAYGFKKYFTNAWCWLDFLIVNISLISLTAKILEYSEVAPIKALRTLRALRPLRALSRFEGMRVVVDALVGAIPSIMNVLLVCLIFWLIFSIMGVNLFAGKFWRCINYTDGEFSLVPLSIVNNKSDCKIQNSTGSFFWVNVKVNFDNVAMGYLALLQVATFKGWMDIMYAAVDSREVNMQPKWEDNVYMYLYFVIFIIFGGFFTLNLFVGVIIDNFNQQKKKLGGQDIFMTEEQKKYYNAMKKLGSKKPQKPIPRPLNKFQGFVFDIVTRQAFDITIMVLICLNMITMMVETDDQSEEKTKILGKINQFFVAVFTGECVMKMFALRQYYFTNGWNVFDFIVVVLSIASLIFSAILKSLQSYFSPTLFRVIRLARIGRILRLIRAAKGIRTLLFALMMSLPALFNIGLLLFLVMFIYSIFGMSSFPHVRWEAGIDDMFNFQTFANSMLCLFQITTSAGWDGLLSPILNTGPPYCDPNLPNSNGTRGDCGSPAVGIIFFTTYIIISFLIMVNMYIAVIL

`COc1c([C@H]2C[C@@](C)(C(F)(F)F)O[C@@H]2C(=O)Nc2cc(C(O)CO)ncc2F)ccc(F)c1F` (single isomer, unassigned) [Compound 690] and `COc1c([C@@H]2[C@@H](C(=O)Nc3ccnc(C(O)CO)c3)O[C@](C)(C(F)(F)F)[C@@H]2C)ccc(F)c1C` (single isomer, unassigned) [Compound 136] cannot be ordered by IC50: no less than 1000 nM for the first, no less than 1000 nM for the second.

Work on `COc1c(C2C(C(=O)Nc3ccnc(C(O)C(C)O)c3)OC(C)(C(F)(F)F)C2C)ccc(F)c1C` (single isomer, unassigned) [Compound 146] yielded an IC50 of no less than 1000 nM.

Same assay, conditions: HEK cells expressing truncated human NaV 1.8; no human serum; read-out: IC50 in the E-VIPR Assay

`CNC1CC(=O)N(c2cc(NC(=O)[C@@H]3O[C@@](C)(C(F)(F)F)[C@@H](C)[C@H]3c3ccc(F)c(F)c3OC)ccn2)C1` (single isomer, unassigned) [Compound 499, rel-(2R*,3S*,4S*,5R*)-3-(3,4-difluoro-2-methoxyphenyl)-4,5-dimethyl-N-(2-(4-(methylamino)-2-oxopyrrolidin-1-yl)pyridin-4-yl)-5-(trifluoromethyl)tetrahydrofuran-2-carboxamide] and `COc1c([C@H]2[C@H](C(=O)Nc3ccnc(N4CCN[C@H](C)C4=O)c3)O[C@@](C)(C(F)(F)F)[C@H]2C)ccc(F)c1F` [Compound 484, (2R,3S,4S,5R)-3-(3,4-difluoro-2-methoxyphenyl)-4,5-dimethyl-N-(2-((R)-3-methyl-2-oxopiperazin-1-yl)pyridin-4-yl)-5-(trifluoromethyl)tetrahydrofuran-2-carboxamide] fall in the same range of IC50: 10 to 100 nM for the first, 10 to 100 nM for the second.

First: C[C@H]1[C@@H](c2ccc(F)c(F)c2OCCO)[C@H](C(=O)Nc2ccnc(CO)c2)O[C@@]1(C)C(F)(F)F [Compound 537, (2R,3S,4S,5R)-3-(3,4-difluoro-2-(2-hydroxyethoxy)phenyl)-N-(2-(hydroxymethyl)pyridin-4-yl)-4,5-dimethyl-5-(trifluoromethyl)tetrahydrofuran-2-carboxamide]
Second: C[C@H]1[C@@H](c2ccc(F)c(F)c2OCCO)[C@H](C(=O)Nc2ccc(C(N)=O)nc2)O[C@@]1(C)C(F)(F)F [Compound 615, 5-((2R,3S,4S,5R)-3-(3,4-difluoro-2-(2-hydroxyethoxy)phenyl)-4,5-dimethyl-5-(trifluoromethyl)tetrahydrofuran-2-carboxamido)picolinamide]
The IC50 of the first is lower: less than 10 nM for the first, 10 to 100 nM for the second.

First: COc1c([C@H]2[C@H](C(=O)Nc3ccnc(CN4CCC[C@H]4CO)c3)O[C@@](C)(C(F)(F)F)[C@H]2C)ccc(F)c1F [Compound 386, (2R,3S,4S,5R)-3-(3,4-difluoro-2-methoxyphenyl)-N-(2-(((S)-2-(hydroxymethyl)pyrrolidin-1-yl)methyl)pyridin-4-yl)-4,5-dimethyl-5-(trifluoromethyl)tetrahydrofuran-2-carboxamide]
Second: COc1c(C2C(C(=O)Nc3cc[n+]([O-])c(C(O)CO)c3)OC(C)(C(F)(F)F)C2C)ccc(F)c1F (stereo not drawn) [Compound 210, 3-(3,4-difluoro-2-methoxy-phenyl)-N-[2-(1,2-dihydroxyethyl)-1-oxido-pyridin-1-ium-4-yl]-4,5-dimethyl-5-(trifluoromethyl)tetrahydrofuran-2-carboxamide]
The IC50 of the first is lower: less than 10 nM for the first, 10 to 100 nM for the second. The first is the more potent here.

`COc1c([C@H]2[C@H](C(=O)Nc3cc(CO)n(C)n3)O[C@@](C)(C(F)(F)F)[C@H]2C)ccc(F)c1F` [Compound 263, (2R,3S,4S,5R)-3-(3,4-difluoro-2-methoxyphenyl)-N-(5-(hydroxymethyl)-1-methyl-1H-pyrazol-3-yl)-4,5-dimethyl-5-(trifluoromethyl)tetrahydrofuran-2-carboxamide] and `COc1c([C@H]2[C@H](C(=O)Nc3c(C)ncn3C)O[C@@](C)(C(F)(F)F)[C@H]2C)ccc(F)c1F` [Compound 319, (2R,3S,4S,5R)-3-(3,4-difluoro-2-methoxyphenyl)-N-(1,4-dimethyl-1H-imidazol-5-yl)-4,5-dimethyl-5-(trifluoromethyl)-tetrahydrofuran-2-carboxamide] cannot be ordered by IC50: 100 to 1000 nM for the first, no less than 1000 nM for the second.

First: CC(C)Oc1c([C@H]2[C@H](C(=O)Nc3ccnc(S(C)(=N)=O)c3)O[C@@](C)(C(F)(F)F)[C@H]2C)ccc(F)c1F (single isomer, unassigned) [Compound 119]
Second: CCOc1c([C@@H]2[C@@H](C(=O)Nc3ccnc(S(C)(=N)=O)c3)O[C@](C)(C(F)(F)F)[C@@H]2C)ccc(F)c1C (relative stereo) [Compound 124, rel-(2S,3R,4R,5S)-3-(2-ethoxy-4-fluoro-3-methylphenyl)-4,5-dimethyl-N-(2-(S-methylsulfonimidoyl)pyridin-4-yl)-5-(trifluoromethyl)tetrahydrofuran-2-carboxamide]
The IC50 of the first is lower: less than 10 nM for the first, 100 to 1000 nM for the second.

First: COc1c([C@H]2[C@H](C(=O)Nc3ccc(C(=O)N(C)O)nc3)O[C@@](C)(C(F)(F)F)[C@H]2C)ccc(F)c1F [Compound 374, 5-[[(2R,3S,4S,5R)-3-(3,4-difluoro-2-methoxy-phenyl)-4,5-dimethyl-5-(trifluoromethyl)tetrahydrofuran-2-carbonyl]amino]-N-hydroxy-N-methyl-pyridine-2-carboxamide]
Second: COc1c([C@H]2[C@H](C(=O)Nc3ccc(C(=O)NS(C)(=O)=O)nc3)O[C@@](C)(C(F)(F)F)[C@H]2C)ccc(F)c1F [Compound 375, 5-[[(2R,3S,4S,5R)-3-(3,4-difluoro-2-methoxy-phenyl)-4,5-dimethyl-5-(trifluoromethyl)tetrahydrofuran-2-carbonyl]amino]-N-methylsulfonyl-pyridine-2-carboxamide]
The IC50 of the first is lower: 10 to 100 nM for the first, 100 to 1000 nM for the second. The first is the more potent here.

`CCOc1c([C@H]2[C@H](C(=O)Nc3ccn4nnnc4c3)O[C@@](C)(C(F)(F)F)[C@H]2C)ccc(F)c1C` (stereo in doubt) [Compound 123, rel-(2R,3S,4S,5R)-3-(2-ethoxy-4-fluoro-3-methylphenyl)-4,5-dimethyl-N-(tetrazolo[1,5-a]pyridin-7-yl)-5-(trifluoromethyl)tetrahydrofuran-2-carboxamide] and `C[C@H]1[C@@H](c2ccc(F)c(F)c2OC(F)F)[C@H](C(=O)Nc2ccnc(C(C)(C)O)c2)O[C@@]1(C)C(F)(F)F` (single isomer, unassigned) [Compound 84] cannot be ordered by IC50: less than 10 nM for the first, less than 10 nM for the second.

First: CCS(=O)(=O)c1cc(NC(=O)[C@@H]2O[C@@](C)(C(F)(F)F)[C@@H](C)[C@H]2c2ccc(F)c(F)c2OC(F)F)ccn1 (single isomer, unassigned) [Compound 90]
Second: COc1c([C@H]2[C@H](C(=O)Nc3ccc(C#N)nc3)O[C@@](C)(C(F)(F)F)[C@H]2C)ccc(F)c1F [Compound 192, (2R,3S,4S,5R)-N-(6-cyanopyridin-3-yl)-3-(3,4-difluoro-2-methoxyphenyl)-4,5-dimethyl-5-(trifluoromethyl)tetrahydrofuran-2-carboxamide]
The IC50 of the first is lower: less than 10 nM for the first, 10 to 100 nM for the second. The first is the more potent here.

`COCCOc1c([C@H]2[C@H](C(=O)Nc3ccnc(N4CCN(C)CC4=O)c3)O[C@@](C)(C(F)(F)F)[C@H]2C)ccc(F)c1F` [Compound 585, (2R,3S,4S,5R)-3-(3,4-difluoro-2-(2-methoxyethoxy)phenyl)-4,5-dimethyl-N-(2-(4-methyl-2-oxopiperazin-1-yl)pyridin-4-yl)-5-(trifluoromethyl)tetrahydrofuran-2-carboxamide] and `COCCOc1cc(NC(=O)C2OC(C)(C(F)(F)F)C(C)C2c2ccc(F)c(F)c2OC)cnn1` (single isomer, unassigned) [Compound 34, 3-(3,4-difluoro-2-methoxy-phenyl)-N-[6-(2-methoxyethoxy)pyridazin-4-yl]-4,5-dimethyl-5-(trifluoromethyl)tetrahydrofuran-2-carboxamide] fall in the same range of IC50: 10 to 100 nM for the first, 10 to 100 nM for the second.

`COc1c([C@H]2[C@H](C(=O)Nc3ccc(C(N)=O)[n+]([O-])c3)O[C@@](C)(C(F)(F)F)[C@H]2C)ccc(F)c1F` [Compound 2, 2-carbamoyl-5-((2R,3S,4S,5R)-3-(3,4-difluoro-2-methoxyphenyl)-4,5-dimethyl-5-(trifluoromethyl)tetra hydrofuran-2-carboxamido)pyridine 1-oxide] and `COc1c([C@H]2[C@H](C(=O)Nc3cnc(C)n3C)O[C@@](C)(C(F)(F)F)[C@H]2C)ccc(F)c1F` [Compound 447, (2R,3S,4S,5R)-3-(3,4-difluoro-2-methoxy-phenyl)-N-(2,3-dimethylimidazol-4-yl)-4,5-dimethyl-5-(trifluoromethyl)tetrahydrofuran-2-carboxamide] fall in the same range of IC50: 10 to 100 nM for the first, 10 to 100 nM for the second.

Compared with `COc1c([C@H]2[C@H](C(=O)Nc3cc(C4CNCCO4)ncc3F)O[C@@](C)(C(F)(F)F)[C@H]2C)ccc(F)c1F` (single isomer, unassigned) [Compound 350, rel-(2R*,3S*,4S*,5R*)-3-(3,4-difluoro-2-methoxyphenyl)-N-(5-fluoro-2-(morpholin-2-yl)pyridin-4-yl)-4,5-dimethyl-5-(trifluoromethyl)-tetrahydrofuran-2-carboxamide], `COc1c([C@@H]2[C@@H](C(=O)Nc3cnc(C(N)=O)nc3)O[C@](C)(C(F)(F)F)[C@@H]2C)ccc(F)c1C(F)F` (stereo in doubt) [Compound 172, rel-5((2S,3R,4R,5S)-3-(3-(difluoromethyl)-4-fluoro-2-methoxy-phenyl)-4,5-dimethyl-5-(trifluoromethyl)tetrahydrofuran-2-carboxamido)pyrimidine-2-carboxamide] is higher in IC50: 10 to 100 nM for the first, no less than 1000 nM for the second. The first is the more potent here.

`COc1nc(C(F)F)ccc1[C@H]1[C@H](C(=O)Nc2ccc(C(N)=O)nc2)O[C@@](C)(C(F)(F)F)[C@H]1C` (stereo in doubt) [Compound 734, rel-5-((2R,3S,4S,5R)-3-(6-(difluoromethyl)-2-methoxypyridin-3-yl)-4,5-dimethyl-5-(trifluoromethyl)tetrahydrofuran-2-carboxamido)picolinamide] and `COCc1cc(C)nc(NC(=O)[C@@H]2O[C@@](C)(C(F)(F)F)[C@@H](C)[C@H]2c2ccc(F)c(F)c2OCCO)n1` [Compound 562, (2R,3S,4S,5R)-3-(3,4-difluoro-2-(2-hydroxyethoxy)phenyl)-N-(4-(methoxymethyl)-6-methylpyrimidin-2-yl)-4,5-dimethyl-5-(trifluoromethyl)tetrahydrofuran-2-carboxamide] cannot be ordered by IC50: 100 to 1000 nM for the first, no less than 1000 nM for the second.
